Measurements as given in patent US8337835B2, “Use of an endogenous ligand for peroxisome proliferator activated receptor alpha to treat liver disorders” (priority 2009, dated 2012).

Experiments:
[1] = tested on: PPARα-dependent genes ACO and CPT-1; assay: Portal vein infusion, hepatic ACO and CPT-1 mRNA by RT-PCR; format: in vivo, mouse; conditions: 10 mg/kg intraportal three times a day
Procedure: Total RNA was extracted from Hepa 1-6 cells and liver using Trizol (Invitrogen) and treated with DNase I (RNase-free, Roche Molecular Biochemicals). Reverse transcription to cDNA and real-time quantitative PCR were performed using previously published procedures and primer-probe sequences for ACO and CPT-1 (Chakravarthy et al., 2005). RT-PCR for ChPT1 and CEPT1 was performed using the following primer-probe sets: ChPT1 (Forward, 5′-[…]-3′ (SEQ ID NO: 3); Reverse, 5′-[…]-3′ (SEQ ID NO: 4); Probe, 5′-[…]-3′ (SEQ ID NO: 5)); CEPT1 (Forward, 5′-TGCTGGACGGTCCCTTCTC-3′ (SEQ ID NO: 6); Reverse, 5′-[…]-3′ (SEQ ID NO: 7); Probe, 5′-[…]-3′ (SEQ ID NO: 8)). RNA not subjected to reverse transcription was included in each assay as a negative control. […] Relative mRNA levels were calculated using both the comparative CT and standard curve methods normalized to ribosomal protein L32, an invariant internal control. […]
The objectives were achieved by portal vein infusion of 1-palmitoyl-2-oleoyl-sn-glycerol-3-phosphocholine (16:0/18:1-GPC) to rescue PPARα^−/− mice from fatty liver disease or hepatic steatosis, liver tissue extraction, RT-PCR gene expression analysis of the extracted liver tissue and lipid and triglyceride assessment of the extracted liver tissue. […] Fat staining of liver is shown in FIG. 7C and liver triglyceride quantified in FIG. 7D. […]

[2] = tested on: PPARα-dependent genes (ACO and CPT-1) after CEPT1 knockdown; assay: Rescue of ACO and CPT-1 expression in Hepa 1-6 cells treated with CEPT1 siRNA; format: cell-based, mouse; conditions: 72 h CEPT1 siRNA, then 50 μM for 24 h
Procedure: The C57BL/6 mouse hepatoma cell line Hepa 1-6 (ATCC, CRL-1830) was expanded in DMEM with 10% fetal bovine serum. For experiments, cells were cultured to 50-60% confluence, washed twice with PBS, and the medium was changed to serum-free DMEM supplemented with the various types and concentrations of phosphatidylcholine (sonicated to homogeneity in PBS/1% ethanol/4% fatty acid-free BSA), Wy14,643 (dissolved in 80% PBS/20% DMSO), or vehicle-only solutions. 24 h later, cells were washed, RNA prepared, and ACO and CPT-1 expression levels were determined by quantitative RT-PCR (see FIG. 6). For siRNA experiments, 50-60% confluent cells were treated with siRNAs or their scrambled controls (all diluted in PBS) for 72 h. […]
Stealth™ siRNA oligonucleotides were used to inhibit the gene expression of mouse ChPT1 ([…]) (SEQ ID NO: 1) and CEPT1 ([…]) (SEQ ID NO: 2) were from Invitrogen (Carlsbad, Calif.). […] Expression of ACO and CPT-1 was also assessed 24 h after addition of 50 μM 16:0/18:1-GPC in a subset of Hepa 1-6 cells previously treated with CEPT1 siRNA. mRNA levels are normalized to control L32 ribosomal mRNA. […] FIGS. 6F-H show the binding of various peptide motifs to the purified PPARα (FIG. 6F), PPARδ (FIG. 6G), and PPARγ (FIG. 6H) LBD in the presence of 5 μM of the corresponding PPAR agonist or 16:0/18:1-GPC as measured by AlphaScreen assays. […]

`CCCCCCCC/C=C\CCCCCCCC(=O)O[C@H](COC(=O)CCCCCCCCCCCCCCC)COP(=O)([O-])OCC[N+](C)(C)C` [16:0/18:1-GPC, 1-palmitoyl-2-oleoyl-sn-glycerol-3-phosphocholine] was tested, and the “hepatic ACO and CPT-1 expression” value ([1]; PPARα-deficient mice) was “not in PPARα-deficient mice”, the “hepatic ACO and CPT-1 expression” value ([1]; control (C57/BL6) mice) was “increased” and the “rescue of decreased PPARα-dependent genes (ACO, CPT-1) after CEPT1 knockdown” value [2] was “rescued”.
